Data taken from ChEMBL document CHEMBL1155011, “Structure-activity relationships of the cycloalkanol ethylamine scaffold: discovery of selective norepinephrine reuptake inhibitors” (J Med Chem, 2008).

What was measured:
Mus musculus [1] = test: Antidepressant activity in Swiss Webster mouse assessed as decrease in immobility time at 17 mg/kg, ip after 30 mins by tail suspension test; format: functional; design: scale not given: the % may be the effect or the level left; conditions: route intraperitoneal
Mus musculus [2] = test: Antidepressant activity in Swiss Webster mouse assessed as decrease in immobility time at 30 mg/kg, ip after 30 mins by tail suspension test; format: functional; design: scale not given: the % may be the effect or the level left; conditions: route intraperitoneal
Rattus norvegicus [3] = test: Effect on ovariectomy-induced thermoregulatory dysfunction in telemetry Sprague-Dawley rat model assessed as mean reduction in tail skin temperature at 30 mg/kg, po after 3 hrs relative to control; format: functional
Rattus norvegicus [4] = test: Effect on ovariectomy-induced thermoregulatory dysfunction in telemetry Sprague-Dawley rat model assessed as mean reduction in tail skin temperature at 30 mg/kg, ip after 6.5 hrs relative to control; format: functional; conditions: route intraperitoneal
[5] = Cmax in Sprague-Dawley rat at 30 mg/kg, ip; format: ADME, organism-based; design: dose 30 mg/kg, route intraperitoneal; conditions: in vivo
[6] = Half life in Sprague-Dawley rat at 30 mg/kg, ip; format: ADME, organism-based; design: dose 30 mg/kg, route intraperitoneal; conditions: in vivo
[7] = AUC (0 to infinity) in Sprague-Dawley rat at 30 mg/kg, ip; format: ADME, organism-based; design: time infinity, dose 30 mg/kg, route intraperitoneal; conditions: plasma
[8] = Plasma concentration in Sprague-Dawley rat at 1 mg/kg, iv after 0.033 hrs; format: ADME, organism-based; design: dose 1 mg/kg, route intravenous
[9] = Cmax in Sprague-Dawley rat at 30 mg/kg, po; format: ADME, organism-based; design: dose 30 mg/kg, route oral; conditions: in vivo
[10] = Half life in Sprague-Dawley rat at 30 mg/kg, po; format: ADME, organism-based; design: dose 30 mg/kg, route oral; conditions: in vivo
[11] = AUC (0 to infinity) in Sprague-Dawley rat at 30 mg/kg, po; format: ADME, organism-based; design: time infinity, dose 30 mg/kg, route oral; conditions: plasma
[12] = Plasma concentration in Sprague-Dawley rat at 1 mg/kg, iv after […]; format: ADME, organism-based; design: dose 1 mg/kg, route intravenous
[13] = Plasma concentration in Sprague-Dawley rat at 1 mg/kg, iv after 0.5 hrs; format: ADME, organism-based; design: dose 1 mg/kg, route intravenous
[14] = Plasma concentration in Sprague-Dawley rat at 1 mg/kg, iv after 1 hr; format: ADME, organism-based; design: dose 1 mg/kg, route intravenous
[15] = Plasma concentration in Sprague-Dawley rat at 1 mg/kg, iv after 2 hrs; format: ADME, organism-based; design: dose 1 mg/kg, route intravenous
[16] = Plasma concentration in Sprague-Dawley rat at 1 mg/kg, iv after 4 hrs; format: ADME, organism-based; design: dose 1 mg/kg, route intravenous
[17] = Plasma concentration in Sprague-Dawley rat at 1 mg/kg, iv after 6 hrs; format: ADME, organism-based; design: dose 1 mg/kg, route intravenous
[18] = AUC (0 to infinity) in Sprague-Dawley rat at 1 mg/kg, iv; format: ADME, organism-based; design: time infinity, dose 1 mg/kg, route intravenous; conditions: plasma
[19] = Plasma concentration in Sprague-Dawley rat at 30 mg/kg, ip after 0.033 hrs; format: ADME, organism-based; design: dose 30 mg/kg, route intraperitoneal
[20] = Plasma concentration in Sprague-Dawley rat at 30 mg/kg, ip after […]; format: ADME, organism-based; design: dose 30 mg/kg, route intraperitoneal
[21] = Plasma concentration in Sprague-Dawley rat at 30 mg/kg, ip after 0.5 hrs; format: ADME, organism-based; design: dose 30 mg/kg, route intraperitoneal
[22] = Plasma concentration in Sprague-Dawley rat at 30 mg/kg, ip after 1 hr; format: ADME, organism-based; design: dose 30 mg/kg, route intraperitoneal
[23] = Plasma concentration in Sprague-Dawley rat at 30 mg/kg, ip after 2 hrs; format: ADME, organism-based; design: dose 30 mg/kg, route intraperitoneal
[24] = Plasma concentration in Sprague-Dawley rat at 30 mg/kg, ip after 4 hrs; format: ADME, organism-based; design: dose 30 mg/kg, route intraperitoneal
[25] = Plasma concentration in Sprague-Dawley rat at 30 mg/kg, ip after 6 hrs; format: ADME, organism-based; design: dose 30 mg/kg, route intraperitoneal
[26] = Plasma concentration in Sprague-Dawley rat at 30 mg/kg, ip after 8 hrs; format: ADME, organism-based; design: dose 30 mg/kg, route intraperitoneal
[27] = Plasma concentration in Sprague-Dawley rat at 30 mg/kg, po after […]; format: ADME, organism-based; design: dose 30 mg/kg, route oral
[28] = Plasma concentration in Sprague-Dawley rat at 30 mg/kg, po after 0.5 hrs; format: ADME, organism-based; design: dose 30 mg/kg, route oral
[29] = Plasma concentration in Sprague-Dawley rat at 30 mg/kg, po after 1 hr; format: ADME, organism-based; design: dose 30 mg/kg, route oral
[30] = Plasma concentration in Sprague-Dawley rat at 30 mg/kg, po after 2 hrs; format: ADME, organism-based; design: dose 30 mg/kg, route oral
[31] = Plasma concentration in Sprague-Dawley rat at 30 mg/kg, po after 4 hrs; format: ADME, organism-based; design: dose 30 mg/kg, route oral
[32] = Plasma concentration in Sprague-Dawley rat at 30 mg/kg, po after 6 hrs; format: ADME, organism-based; design: dose 30 mg/kg, route oral
[33] = Plasma concentration in Sprague-Dawley rat at 30 mg/kg, po after 8 hrs; format: ADME, organism-based; design: dose 30 mg/kg, route oral
[34] = biological target: Sodium-dependent dopamine transporter (Homo sapiens, UniProt Q01959); test: Displacement of [3H]WIN-35428 from human recombinant dopamine transporter expressed in CHO cells at 1000 nM; format: cell-based
[35] = biological target: Sodium-dependent serotonin transporter (Homo sapiens, UniProt P31645); test: Inhibition of 5HT uptake at human SERT expressed in human JAR cells at 1000 nM; format: cell-based
[36] = biological target: T1, 5-hydroxytryptamine receptor 1B (Homo sapiens, UniProt P28222); test: Activity at 5HT1B receptor assessed as calcium mobilization by FLIPR; format: functional
[37] = biological target: T1, 5-hydroxytryptamine receptor 1B; test: Inhibition of 5HT1B receptor by competition radioligand binding assay
[38] = biological target: T2, 5-hydroxytryptamine receptor 1D (Homo sapiens, UniProt P28221); test: Activity at 5HT1D receptor assessed as calcium mobilization by FLIPR; format: functional
[39] = biological target: T2, 5-hydroxytryptamine receptor 1D; test: Inhibition of 5HT1D receptor by competition radioligand binding assay
[40] = biological target: T3, 5-hydroxytryptamine receptor 2A (Homo sapiens, UniProt P28223); test: Activity at 5HT2A receptor assessed as calcium mobilization by FLIPR; format: functional
[41] = biological target: T3, 5-hydroxytryptamine receptor 2A; test: Inhibition of 5HT2A receptor by competition radioligand binding assay
[42] = biological target: T4, 5-hydroxytryptamine receptor 2B (Homo sapiens, UniProt P41595); test: Activity at 5HT2B receptor assessed as calcium mobilization by FLIPR; format: functional
[43] = biological target: T4, 5-hydroxytryptamine receptor 2B; test: Inhibition of 5HT2B receptor by competition radioligand binding assay
[44] = biological target: T5, 5-hydroxytryptamine receptor 6 (Homo sapiens, UniProt P50406); test: Activity at 5HT6 receptor assessed as calcium mobilization by FLIPR; format: functional
[45] = biological target: T5, 5-hydroxytryptamine receptor 6; test: Inhibition of 5HT6 receptor by competition radioligand binding assay
[46] = biological target: T6, 5-hydroxytryptamine receptor 7 (Homo sapiens, UniProt P34969); test: Activity at 5HT7 receptor assessed as calcium mobilization by FLIPR; format: functional
[47] = biological target: T6, 5-hydroxytryptamine receptor 7; test: Inhibition of 5HT7 receptor by competition radioligand binding assay
[48] = Activity at adrenergic receptor 1 alpha assessed as calcium mobilization by FLIPR
[49] = Inhibition of adrenergic receptor 1 alpha by competition radioligand binding assay

T4 sequence (P41595 whole entry): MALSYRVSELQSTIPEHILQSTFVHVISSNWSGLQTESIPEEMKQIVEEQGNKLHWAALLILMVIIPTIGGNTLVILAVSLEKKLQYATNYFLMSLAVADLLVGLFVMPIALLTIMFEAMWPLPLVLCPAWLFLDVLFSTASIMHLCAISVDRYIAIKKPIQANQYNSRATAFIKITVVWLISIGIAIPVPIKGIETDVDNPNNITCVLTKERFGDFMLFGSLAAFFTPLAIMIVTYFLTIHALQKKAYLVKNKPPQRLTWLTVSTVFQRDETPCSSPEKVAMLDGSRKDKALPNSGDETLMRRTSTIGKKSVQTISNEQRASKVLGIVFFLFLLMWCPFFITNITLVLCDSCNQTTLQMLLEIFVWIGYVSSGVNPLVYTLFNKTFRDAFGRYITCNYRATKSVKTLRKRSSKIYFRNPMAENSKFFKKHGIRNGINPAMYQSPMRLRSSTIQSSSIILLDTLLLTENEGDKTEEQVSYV
T6 sequence (P34969 whole entry): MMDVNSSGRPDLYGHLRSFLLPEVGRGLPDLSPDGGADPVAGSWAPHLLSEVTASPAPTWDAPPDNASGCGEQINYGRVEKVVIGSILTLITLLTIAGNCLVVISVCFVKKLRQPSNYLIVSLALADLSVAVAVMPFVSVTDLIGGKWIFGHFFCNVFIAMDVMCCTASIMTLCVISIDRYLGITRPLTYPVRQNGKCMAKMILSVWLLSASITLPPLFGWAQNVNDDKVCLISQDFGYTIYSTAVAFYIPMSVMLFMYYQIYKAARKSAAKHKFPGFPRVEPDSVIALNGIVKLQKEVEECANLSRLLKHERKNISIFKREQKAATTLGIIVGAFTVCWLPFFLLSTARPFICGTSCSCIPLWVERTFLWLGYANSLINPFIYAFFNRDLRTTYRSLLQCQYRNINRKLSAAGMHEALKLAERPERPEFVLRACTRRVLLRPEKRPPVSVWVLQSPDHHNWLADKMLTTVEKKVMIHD
T5 sequence (P50406 whole entry): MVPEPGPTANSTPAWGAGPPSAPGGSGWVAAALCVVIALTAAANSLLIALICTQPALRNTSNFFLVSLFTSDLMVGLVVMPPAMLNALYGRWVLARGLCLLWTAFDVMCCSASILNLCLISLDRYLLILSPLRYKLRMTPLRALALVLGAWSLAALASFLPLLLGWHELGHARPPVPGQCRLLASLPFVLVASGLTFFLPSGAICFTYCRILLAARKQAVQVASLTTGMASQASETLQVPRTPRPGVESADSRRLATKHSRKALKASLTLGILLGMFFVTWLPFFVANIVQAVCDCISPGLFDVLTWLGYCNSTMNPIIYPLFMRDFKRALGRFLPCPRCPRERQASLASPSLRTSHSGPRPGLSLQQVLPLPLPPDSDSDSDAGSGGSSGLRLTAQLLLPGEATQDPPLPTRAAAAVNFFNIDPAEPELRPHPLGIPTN
T1 sequence (P28222 whole entry): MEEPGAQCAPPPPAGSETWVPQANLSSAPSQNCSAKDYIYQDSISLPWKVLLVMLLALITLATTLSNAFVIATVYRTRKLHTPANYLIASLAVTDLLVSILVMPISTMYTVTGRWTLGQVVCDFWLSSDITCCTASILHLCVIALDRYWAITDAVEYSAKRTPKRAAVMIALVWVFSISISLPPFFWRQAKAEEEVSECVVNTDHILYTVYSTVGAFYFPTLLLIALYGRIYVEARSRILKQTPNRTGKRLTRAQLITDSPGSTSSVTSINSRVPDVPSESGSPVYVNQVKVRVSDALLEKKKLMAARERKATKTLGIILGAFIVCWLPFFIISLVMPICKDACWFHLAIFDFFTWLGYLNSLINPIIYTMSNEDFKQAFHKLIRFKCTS
T3 sequence (P28223 whole entry): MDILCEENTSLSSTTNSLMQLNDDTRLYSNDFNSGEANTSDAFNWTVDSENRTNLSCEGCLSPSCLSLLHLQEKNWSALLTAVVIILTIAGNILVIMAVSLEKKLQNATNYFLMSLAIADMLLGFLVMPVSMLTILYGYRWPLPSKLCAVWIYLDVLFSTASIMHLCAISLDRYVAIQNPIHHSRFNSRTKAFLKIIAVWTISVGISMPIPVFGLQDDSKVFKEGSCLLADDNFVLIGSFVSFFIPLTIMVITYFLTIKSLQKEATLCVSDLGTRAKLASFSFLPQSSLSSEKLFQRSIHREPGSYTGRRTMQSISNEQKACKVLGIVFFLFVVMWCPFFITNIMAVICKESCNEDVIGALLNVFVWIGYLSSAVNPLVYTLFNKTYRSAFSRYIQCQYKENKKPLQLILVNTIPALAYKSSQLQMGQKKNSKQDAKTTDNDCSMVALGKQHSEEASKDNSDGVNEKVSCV
T2 sequence (P28221 whole entry): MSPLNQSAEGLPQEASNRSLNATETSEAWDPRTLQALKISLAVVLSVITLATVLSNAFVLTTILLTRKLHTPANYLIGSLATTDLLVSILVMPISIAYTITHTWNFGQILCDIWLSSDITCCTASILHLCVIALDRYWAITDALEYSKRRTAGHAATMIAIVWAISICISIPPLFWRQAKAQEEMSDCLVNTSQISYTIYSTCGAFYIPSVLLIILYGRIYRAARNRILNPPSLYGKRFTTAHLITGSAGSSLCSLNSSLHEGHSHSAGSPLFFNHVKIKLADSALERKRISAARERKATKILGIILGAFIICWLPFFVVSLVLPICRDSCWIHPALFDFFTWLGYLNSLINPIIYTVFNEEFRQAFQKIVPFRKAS
Sequence of Sodium-dependent serotonin transporter (P31645 whole entry, looked up): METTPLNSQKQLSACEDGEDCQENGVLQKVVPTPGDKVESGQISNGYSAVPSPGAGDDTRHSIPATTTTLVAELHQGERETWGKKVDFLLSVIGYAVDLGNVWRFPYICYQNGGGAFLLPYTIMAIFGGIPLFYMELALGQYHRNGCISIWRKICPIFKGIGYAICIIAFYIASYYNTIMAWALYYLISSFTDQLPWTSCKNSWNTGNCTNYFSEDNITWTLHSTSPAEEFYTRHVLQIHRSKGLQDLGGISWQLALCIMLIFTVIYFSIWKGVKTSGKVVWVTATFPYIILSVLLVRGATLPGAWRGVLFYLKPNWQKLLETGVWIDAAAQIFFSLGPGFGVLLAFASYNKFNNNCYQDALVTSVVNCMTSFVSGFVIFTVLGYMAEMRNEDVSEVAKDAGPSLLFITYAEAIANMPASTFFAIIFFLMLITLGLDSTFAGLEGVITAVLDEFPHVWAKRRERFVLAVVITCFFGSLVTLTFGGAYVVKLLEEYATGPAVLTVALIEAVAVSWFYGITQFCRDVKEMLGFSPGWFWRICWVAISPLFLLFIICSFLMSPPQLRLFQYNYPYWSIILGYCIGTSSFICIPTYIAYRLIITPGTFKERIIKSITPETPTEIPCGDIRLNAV
Sequence of Sodium-dependent dopamine transporter (Q01959 whole entry): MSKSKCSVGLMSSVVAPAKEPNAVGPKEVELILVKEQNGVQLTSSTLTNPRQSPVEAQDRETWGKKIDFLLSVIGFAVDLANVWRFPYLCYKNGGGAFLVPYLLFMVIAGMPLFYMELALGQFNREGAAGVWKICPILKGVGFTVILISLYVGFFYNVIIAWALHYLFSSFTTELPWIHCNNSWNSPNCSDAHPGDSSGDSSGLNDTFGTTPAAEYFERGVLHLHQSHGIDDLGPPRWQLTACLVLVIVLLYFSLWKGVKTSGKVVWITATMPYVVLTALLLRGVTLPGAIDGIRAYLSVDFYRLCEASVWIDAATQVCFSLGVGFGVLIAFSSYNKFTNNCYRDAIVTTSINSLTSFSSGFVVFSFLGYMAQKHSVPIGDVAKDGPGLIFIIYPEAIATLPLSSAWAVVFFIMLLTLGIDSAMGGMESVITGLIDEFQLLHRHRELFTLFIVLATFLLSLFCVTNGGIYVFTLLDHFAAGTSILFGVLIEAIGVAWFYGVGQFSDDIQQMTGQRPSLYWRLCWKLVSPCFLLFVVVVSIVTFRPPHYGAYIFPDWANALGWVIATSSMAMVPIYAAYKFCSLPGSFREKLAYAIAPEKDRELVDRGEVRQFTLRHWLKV

Work on `CN1CCN(C[C@H](c2cccc(OC(F)(F)F)c2)C2(O)CCCCC2)CC1.Cl.Cl` yielded an Activity (Mus musculus [1]) of 38%, an Activity (Mus musculus [2]) of 53% and an Activity (Rattus norvegicus [3]) of -2.16 °C. The Activity (Rattus norvegicus [4]) was -2.75 °C, the Cmax [5] was 2690 ng/mL and the half-life [6] was 2.3 h. It also gave an AUC(0-inf) [7] of 6160 ng·h/mL, a concentration at 0.033 h [8] of 164 ng/mL and a Cmax [9] of 324 ng/mL. The half-life [10] was 1.6 h, the AUC(0-inf) [11] was 931 ng·h/mL and the concentration at […] [12] was 225 ng/mL. The concentration at 0.5 h [13] was 187 ng/mL, the concentration at 1 h [14] was 109 ng/mL and the concentration at 2 h [15] was 55.4 ng/mL. The concentration at 4 h [16] was 19.1 ng/mL, the concentration at 6 h [17] was 2.98 ng/mL and the AUC(0-inf) [18] was 367 ng·h/mL. It also gave a concentration at 0.033 h [19] of 942 ng/mL, a concentration at […] [20] of 1580 ng/mL and a concentration at 0.5 h [21] of 2160 ng/mL. It also gave a concentration at 1 h [22] of 1960 ng/mL, a concentration at 2 h [23] of 735 ng/mL and a concentration at 4 h [24] of 520 ng/mL. It also gave a concentration at 6 h [25] of 303 ng/mL, a concentration at 8 h [26] of 143 ng/mL and a concentration at […] [27] of 115 ng/mL. The concentration at 0.5 h [28] was 323 ng/mL, the concentration at 1 h [29] was 304 ng/mL and the concentration at 2 h [30] was 182 ng/mL. It also gave a concentration at 4 h [31] of 79.5 ng/mL, a concentration at 6 h [32] of 36.5 ng/mL and a concentration at 8 h [33] of 14.3 ng/mL. It also gave an Activity [34] of 6%, an inhibition [35] of 3% and an EC50 [36] greater than 10 µM. It also gave an IC50 [37] greater than 10 µM, an EC50 [38] greater than 10 µM and an IC50 [39] greater than 10 µM. The EC50 [40] was greater than 10 µM, the IC50 [41] was greater than 10 µM and the EC50 [42] was greater than 10 µM. The IC50 [43] was greater than 10 µM, the EC50 [44] was greater than 10 µM and the IC50 [45] was greater than 10 µM. The EC50 [46] was greater than 10 µM, the IC50 [47] was greater than 10 µM and the EC50 [48] was greater than 10 µM. For the same compound, the IC50 [49] was greater than 10 µM.
